Laboratory results reported in publication PMC10931776, “Modes of Interactions with DNA/HSA Biomolecules and Comparative Cytotoxic Studies of Newly Synthesized Mononuclear Zinc(II) and Heteronuclear Platinum(II)/Zinc(II) Complexes toward Colorectal Cancer Cells” (International Journal of Molecular Sciences, 2024).

Experiments:
CT-DNA = assay: Ethidium bromide/CT-DNA fluorescence quenching (EB displacement); assay type: binding; details: EB/CT-DNA 1:1, 5 µM, PBS pH 7.4, room temperature, λex 527 nm, λem 612 nm
From the text: Fluorescent spectroscopy allows the determination of the intercalation potential of compounds. Intercalation involves planar aromatic molecules binding between the base pairs of DNA chains, causing them to elongate. Ethidium bromide (EB) is commonly used as a DNA intercalator and produces high levels of fluorescent emissions at 612 nm when intercalating between DNA strands. However, the addition of compounds that can intercalate between DNA strands and suppress the effects of EB will reduce fluorescent emissions. If a complex is able to replace EB, fluorescence reduction will occur, indicating the complex’s ability to bind intercalatively. Figure 3 and Figures S10–S13 show the results of fluorescence titrations in the presence of intercalator EB, where the emission intensity of a constant CT-DNA/EB solution concentration of 5 µM was monitored with increasing complex concentration up to a ratio of 5.
To determine whether the complex could displace EB from the CT-DNA-EB complex, the interactions of the complex with CT-DNA were examined in the presence of EB. The CT-DNA-EB solution was formed by combining EB and CT-DNA solutions with a concentration of 5 μM at a pH of 7.4. The impact of the complex binding to the CT-DNA was measured by analyzing the fluorescence emission spectrum after the addition of the examined complexes solution in increasing concentration, Figure 3.
The binding affinity of the complexes C1–C5 to CT-DNA via intercalation was determined using fluorescence spectroscopy. All measurements were conducted at room temperature in 0.01 M PBS with a pH of 7.4. Fluorescence measurements were performed by adding increasing complex concentrations (0–50 μM) to a CT-DNA and EB solution. Before each measurement, the system was shaken at room temperature. The fluorescence intensity was measured with the wavelength of excitation at 527 nm and the wavelength of emission at 612 nm. The width of the excitation and emission slits (10 nm) and scan rate were maintained at a constant rate. The emission of the solution was recorded in the range of 550 to 750 nm. The Stern–Volmer constants, Ksv, were determined by Equation (2). I0/I = 1 + Ksv[Q](2) [Q] is the concentration of the complex, I0 and I represent emission intensities in the absence and presence of complex, and Ksv is the Stern–Volmer constant obtained from the slope of the plot of I0/I vs. [Q] [25, 26, 27, 28].

[1] = system: human colorectal carcinoma (HCT116); assay: MTT cytotoxicity assay, HCT116; assay type: cell-based; details: 48 h
Method: The in vitro cytotoxicity of newly synthesized mono- and heteronuclear platinum(II)/and zinc(II) complexes, featuring a 4,4′,4″-tri-tert-butyl-2,2′:6′,2″-terpyridine ligand (designated as C1–C5), was assessed using MTT assay procedures. This evaluation targeted various cell lines: mouse colorectal carcinoma (CT26), human colorectal carcinoma (HCT116 and SW480), and non-cancerous mouse mesenchymal stem cells (mMSC). These cell lines were exposed to synthesized complexes for 48 h, with concentrations ranging from 1.17 to 150 μM.
In our study, various cell lines were cultured, including mouse colorectal carcinoma (CT26), human colorectal carcinoma (HCT116 and SW480) obtained from ATCC, USA, and mouse mesenchymal stem cells (mMSC, Gibco), New York, NY, USA). These cell lines were consistently maintained in complete Dulbecco’s Modified Eagle Medium (DMEM) supplemented with 10% fetal bovine serum (FBS) (Sigma Aldrich, St. Louis, MO, USA), 100 IU/mL penicillin, and 100 μg/mL streptomycin antibiotics (Invitrogen, Carlsbad, CA, USA). The cultures were incubated at 37 °C in a humidified atmosphere of 5% carbon dioxide (CO2). […] The viability and count of the cells were determined using Trypan blue staining, ensuring the accuracy and reliability of the experimental outcomes.
The cytotoxic effects of five newly synthesized complexes, alongside cisplatin, were assessed through the MTT assay method, in line with previously established protocols. During the exponential growth phase, cells were collected from culture flasks, counted, and then seeded in 96-well culture plates at a density of 5·10^3 cells per well. Subsequent treatment involved exposing these cells to varying concentrations of the newly synthesized complexes and cisplatin (ranging from 1.17 to 150 μM) for a duration of 48 h, with fresh complete medium serving as the control. The results were quantified relative to the control (untreated cells), providing a comparative measure of cytotoxicity. Additionally, IC50 values, representing the concentration required to inhibit 50% of the cell viability, were calculated using Microsoft Office Excel 2010. Lastly, the data were presented as percentages of viable cells in accordance with the methodology outlined in the referenced study, facilitating a comprehensive understanding of the anticancer potential of these compounds.

CT26 cells = assay: Cell cycle analysis by flow cytometry; assay type: cell-based, mouse; details: CT26, 24 h treatment, vs untreated
Method: The study of cell cycle arrest in CT26 carcinoma cells treated with the potent compound C1 was conducted to elucidate the potential cellular mechanisms underlying its anticancer effect. For this purpose, CT26 cells were subjected to 24 h treatment with the C1 complex. […] This arrest is likely attributable to molecular alterations within the cancer cells post-treatment. […] This reduction in the S phase, where DNA replication occurs, further indicates the efficacy of the C1 complex in hindering cell cycle progression. […] The induction of cell cycle arrest by the C1 compound potentially curtails the growth and dissemination of carcinoma cells, underscoring its efficacy as a promising anticancer agent.
Our research progressed to explore the potential effects of the newly synthesized C1 complex on the cell cycle dynamics of CT26 tumor cells. […] Each sample tube was then treated with a specific antibody targeting Ki67 (eBioscience, San Diego, CA, USA)/1 μL of Vybrant® DyeCycleTM Ruby stain (Thermo Fisher Scientific Inc., Waltham, MA, USAand subsequently analyzed using a FACS Calibur flow cytometer (BD Biosciences, San Jose, CA, USA). A minimum of 15,000 events per sample were examined. Data analysis was conducted using the FlowJo vX.0.7 software, allowing for a detailed assessment of the cell cycle phases and any impact induced by the C1 complex.

In the case of [ZnCl2(terpy^t^Bu)] [C1], the “Stern–Volmer constant Ksv, CT-DNA” value (CT-DNA) is reported as 2.2 ± 0.1 10^4 M^–1, the “Selectivity Index (IC50 mMSC/IC50), HCT 116” value [1] is reported as 0.6 and the IC50 ([1]; read-out: IC50 ± SEM, HCT 116) is reported as 88.2 ± 48.5 µM. The “Cell cycle distribution, G0/G1 phase” value (CT26 cells) was “G0/G1 phase arrest” and the “Cell cycle distribution, synthesis (S) phase” value (CT26 cells) was “notable decrease”.
